Source: patent US20240300899A1, “A QUINOLONE COMPOUND IN SOLID FORMS AND PROCESSES FOR THE PREPARATION THEREOF” (ZYDUS LIFESCIENCES LIMITED, priority 2021, published 2024)

Key:
Assay type in all cases: physicochemical
[1] = Powder properties (bulk density, tapped density, angle of repose)
[2] = Stability data on storage (HPLC purity, polymorphic form, impurity content)
Protocol: The crystalline form of compound of Formula (I) is characterized by X-ray powder diffraction (XRPD) pattern. In particular, the solid form of compound of Formula (I) is characterized by X-ray powder diffraction pattern obtained using CuKα1 radiation on a PANalytical X'Pert Pro or equivalent X-ray powder diffraction instrument. Particularly, the X-ray powder diffraction spectrum was measured under the following experimental conditions: The HPLC purity of the compound of Formula (I) was calculated using following method: Instrument Name: Waters Alliance e2695 HPLC system or equivalent [table] [table] [table]

[3] = Hygroscopicity test as per EP general texts 5.11; details: 24-hour exposure over saturated ammonium chloride solution, 25±1° C., 80±2% relative humidity
Protocol: Hygroscopicity Data: The test for hygroscopicity was performed as per EP general texts 5.11 page no 565. The test was performed by calculating the difference in weights, after 24-hour upon expose over a saturated solution of ammonium chloride at 25±1° C. and 80±2% relative humidity.

[4] = 25° C. ± 2° C. and 60% ± 5% Relative Humidity, 1 month
[5] = 25° C. ± 2° C. and 60% ± 5% Relative Humidity, 15 days
[6] = 25° C. ± 2° C. and 60% ± 5% Relative Humidity, Initial
[7] = 30° C. ± 2° C. and 65% ± 5% Relative Humidity, 1 month
[8] = 30° C. ± 2° C. and 65% ± 5% Relative Humidity, 15 days
[9] = 30° C. ± 2° C. and 65% ± 5% Relative Humidity, Initial
[10] = 40° C. ± 2° C. and 75% ± 5 % Relative Humidity, 1 month
[11] = 40° C. ± 2° C. and 75% ± 5 % Relative Humidity, 15 days
[12] = 40° C. ± 2° C. and 75% ± 5 % Relative Humidity, Initial

## O=C(O)CNC(=O)c1c(O)c2ccccc2n(OCC2CC2)c1=O [Example-1, (1-(cyclopropylmethoxy)-4-hydroxy-2-oxo-1,2-dihydroquinoline-3-carbonyl) glycine]
[1]
  Angle of Repose: 30.6 °
  Bulk Density: 0.61 g/mL
  Tapped Density: 0.73 g/mL
[2]; [4]
  Content of Compound of Formula D: 0.04%
  HPLC Purity: 99.91%
  Polymorphic form: Unchanged
[2]; [5]
  Content of Compound of Formula D: 0.05%
  HPLC Purity: 99.87%
  Polymorphic form: Unchanged
[2]; [6]
  Content of Compound of Formula D: 0.04%
  HPLC Purity: 99.9%
[2]; [7]
  Content of Compound of Formula D: 0.04%
  HPLC Purity: 99.91%
  Polymorphic form: Unchanged
[2]; [8]
  Content of Compound of Formula D: 0.05%
  HPLC Purity: 99.83%
  Polymorphic form: Unchanged
[2]; [9]
  Content of Compound of Formula D: 0.04%
  HPLC Purity: 99.9%
[2]; [10]
  Content of Compound of Formula D: 0.04%
  HPLC Purity: 99.92%
  Polymorphic form: Unchanged
[2]; [11]
  Content of Compound of Formula D: 0.05%
  HPLC Purity: 99.85%
  Polymorphic form: Unchanged
[2]; [12]
  Content of Compound of Formula D: 0.04%
  HPLC Purity: 99.9%
[3]
  Hygroscopicity result: Non-hygroscopic
  Increase in mass (hygroscopicity): less than 0.2%
